The values that follow come from patent US20120178147A1, “MICROBIAL CULTURES AND METHODS FOR ANAEROBIC BIOREMEDIATION” (priority 2009, published 2012).

The subject of the experiment is DehaloR̂2 cultures. Put plainly: TCC and TCS exposure: TCE reductive dechlorination by DehaloR̂2 culture. Particulars: for TCE completely dechlorinated into ethene in the 22-day period in DehaloR̂2: 1.5 μM TCC (32 μmol TCE) or 35 μM TCS. Type of experiment: cell-based. As to the method:
Cultures. Two cultures were used in this study: 1) Bio-Dechlor INOCULUM, which was obtained from Dr. Frank Loffler's laboratory at Georgia Tech; 2) DehaloR̂2 culture, developed from a sediment microcosm from the Chesapeake Bay “sediment core-D” with three-times continuous transfers described in Example 1.
TCC and TCS Exposure. For the TCC and TCS test, 1 ml ATCC mixed vitamin solution (Catalog No. MD-VS), 0.25 ml 20 mg/L vitamin B12 solution and 1 ml 500 mM lactate solution were filtered with a 0.2 μm sterile filter and added to 92.5 ml sterile anaerobic media in 160 ml serum bottles, and then 5 ml of culture was transferred into this fresh media. Lactate served as electron donor and carbon source. Fifty μl TCE stock solutions ([…] in methanol) were injected into the media with 500-μl Hamilton air-tight syringe (Reno, Nev.), and the final TCE concentration was 35 μmol per serum bottle. Ten μl TCC or TCS stock solutions in methanol or pure methanol was injected with 10 μl Hamilton air-tight syringe (Reno, Nev.) into the serum bottle. Three concentration levels of TCC or TCS stock solutions were made and listed in Table 8 to make the three final concentration levels of TCC or TCS. The middle concentration level of TCC and TCS in cultures was set according to the solubility of TCC and TCS at 20° C. The highest concentration of TCC and TCS is 10 times the solubility of TCC and TCS at 20° C., and the lowest concentration of TCC and TCS is 10% the solubility of TCC and TCS at 20° C.
The total aqueous volume in 160-ml serum bottle was 100 ml. Four BDI and four DehaloR̂2 cultures were generated for each concentration of TCC or TCS, and three of them were used for TCE dechlorination analysis and the other one was used for DNA extractions and molecular analysis. The error bars in the figures are the standard deviations for three independent cultures under the same conditions.
The TCC and TCS tests on DehaloR̂2 culture were only dosed with the highest and middle concentrations of TCC and TCS, which are 1.5 μM TCC, 0.15 μM TCC, 35 μM TCS and 3.5 μM TCS, respectively.
All cultures were stored in the dark and incubated at 30° C.
Analytical Methods. The concentrations of TCE and their reductive-dechlorinating byproducts, 1,1-DCE, cis-DCE, trans-DCE, VC, and ethene were quantified by gas chromatography with a flame ionization detector (GC-FID).
200 μl headspace gas samples were withdrawn from 160 ml serum bottle with 500 μl gas-tight syringes (Hamilton Company, Reno, Nev.) and analyzed by a Shimadzu GC-2010 (Columbia, Md.) with an Rt™-QSPLOT capillary column (30 m×0.32 mm×10 μm, Restek, Bellefonte, Pa.) and a flame ionization detector (FID). The initial oven temperature was 110° C. and was held constant for 5 min. Then the temperature was raised with a gradient of 10° C./min to 150° C., a second gradient at 20° C./min to 200° C., and a third gradient of 5° C./min to 220° C. At the end of this gradient, the oven temperature was held constant at 220° C. for 5 min. The temperature of FID and injector were 240° C. Ultra high purity helium was the carrier gas for the GC. Ultra high purity hydrogen and zero grade air were used for the FID.
Calibration curves for chlorinated compounds were determined based on the known mass of PCE, TCE, 1,1-DCE, cis-DCE and trans-DCE added to 160 ml serum bottles containing 100 ml of distilled-deionized water and equilibrated at 25° C. overnight. The contents were then analyzed using the Shimadzu GC-FID. Different volumes of 100 ppm and 1000 ppm VC and ethene gas were injected directly into GC using the 500 μl airtight syringe to make their calibration curves. The aqueous concentrations of PCE, TCE and their reaction products were calculated by using reported Henry's constants on the EPA website (Washington and Weaver, 2006)

The mark [1] stands for this setting: highest level: 1.5 μM TCC or 35 μM TCS.
The mark [2] stands for this setting: middle level: 0.15 μM TCC or 3.5 μM TCS.

For `O=C(Nc1ccc(Cl)cc1)Nc1ccc(Cl)c(Cl)c1` [TCC, 3-(4-chlorophenyl)-1-(3,4-dichlorphenyl) urea], the “TCE completely dechlorinated into ethene in the 22-day period in DehaloR̂2” value is recorded as “About 46%”. Where the note is “0.15 μM TCC”, the “time for complete TCE reductive dechlorination in DehaloR̂2” value is on record as “approximately 22 days” and the “time for reductive dechlorination of 80% of 33 μmol TCE into ethene in DehaloR̂2” value is 11 days. The “time for reductive dechlorination of TCE to cis-DCE in DehaloR̂2” value (1.5 μM TCC) is “about 4 days”. For the setting “highest level: 1.5 μM TCC”, the “Maximum formation rate Ethene in DehaloR̂2 (SCD)” value (from here on “Maximum formation rate Ethene”) amounted to 1.08 μmol vial^−1 day^−1, the “Maximum utilization rate VC in DehaloR̂2 (SCD)” value (“Maximum utilization rate VC” below) came to 1.48 μmol vial^−1 day^−1 and the “Maximum utilization rate cis-DCE in DehaloR̂2 (SCD)” value (“Maximum utilization rate cis-DCE” for short) is listed as 9.55 μmol vial^−1 day^−1. In addition, under setting [1], the “Maximum formation rate VC in DehaloR̂2 (SCD)” value (shortened to “Maximum formation rate VC”) is given as 8.12 μmol vial^−1 day^−1, the “Maximum formation rate cis-DCE in DehaloR̂2 (SCD)” value (“Maximum formation rate cis-DCE” for short) was 12.83 μmol vial^−1 day^−1, the “Maximum utilization rate TCE in DehaloR̂2 (SCD)” value (“Maximum utilization rate TCE” for short) is reported as 9.54 μmol vial^−1 day^−1 and the “effect on TCE reductive dechlorination in DehaloR̂2 cultures” value (shortened to “effect on TCE reductive dechlorination”) was “significantly inhibited TCE reductive dechlorination”. Under setting [2], the “Maximum formation rate Ethene” value is 8.54 μmol vial^−1 day^−1, the “Maximum formation rate VC” value is 6.72 μmol vial^−1 day^−1, the “Maximum formation rate cis-DCE” value was determined as 23.87 μmol vial^−1 day^−1 and the “Maximum utilization rate TCE” value is given as 20.45 μmol vial^−1 day^−1. In addition, under setting [2], the “Maximum utilization rate VC” value amounted to 6.01 μmol vial^−1 day^−1, the “Maximum utilization rate cis-DCE” value is on record as 6.40 μmol vial^−1 day^−1 and the “effect on TCE reductive dechlorination” value is given as “slowed down the TCE reductive dechlorination process”.
For `Oc1cc(Cl)ccc1Oc1ccc(Cl)cc1Cl` [TCS, 5-chloro-2-[2,4-dichloro-phenoxy]-phenol], the “TCE completely dechlorinated into ethene in the 22-day period in DehaloR̂2” value is on record as “no ethene was produced”. For the setting “3.5 μM TCS”, the “time for TCE reductive dechlorination to cis-DCE in DehaloR̂2” value is on record as “about 4 days”. Besides, the “TCE completely dechlorinated into ethene at the 18th day in DehaloR̂2” value (3.5 μM TCS, 34 μmol TCE) is reported as 79%. Besides, where the note is “35 μM TCS”, the “TCE transformed into VC within 22 days in DehaloR̂2” value is reported as 1%. Further, under setting [1], the “Maximum formation rate VC” value turned out to be 0.11 μmol vial^−1 day^−1, the “Maximum formation rate cis-DCE” value was determined as 5.59 μmol vial^−1 day^−1, the “Maximum utilization rate TCE” value came to 5.90 μmol vial^−1 day^−1 and the “effect on TCE reductive dechlorination” value is given as “significantly inhibited TCE reductive dechlorination”. Under setting [2], the “Maximum formation rate Ethene” value is 3.11 μmol vial^−1 day^−1, the “Maximum formation rate VC” value was found to be 8.99 μmol vial^−1 day^−1, the “Maximum formation rate cis-DCE” value was determined as 8.79 μmol vial^−1 day^−1 and the “Maximum utilization rate TCE” value turned out to be 13.47 μmol vial^−1 day^−1. Under setting [2], the “Maximum utilization rate VC” value is on record as 1.96 μmol vial^−1 day^−1, the “Maximum utilization rate cis-DCE” value was found to be 9.10 μmol vial^−1 day^−1 and the “effect on TCE reductive dechlorination” value is on record as “slowed down the TCE reductive dechlorination process”.
